Data taken from ChEMBL document CHEMBL3351389, “Identification of novel inhibitors of phospho-MurNAc-pentapeptide translocase MraY from library screening: Isoquinoline alkaloid michellamine B and xanthene dye phloxine B” (Bioorg Med Chem, 2014).
pIC50: −log10 of the molar value. Values after ≈ are worked out from the molar mass of the structure shown. Active and inactive are the calls of the source. The rule behind the calls is not given here.

Key:
[1] = Inhibition of MraY in Staphylococcus aureus membranes by continuous fluorescence assay; type: cell membranes
[2] = molecular target: T1, Phospho-N-acetylmuramoyl-pentapeptide-transferase (Escherichia coli, UniProt E2QF15); test: Inhibition of recombinant MraY overexpressed in Escherichia coli membranes by continuous fluorescence assay; type: cell membranes
T1 sequence (E2QF15 whole entry): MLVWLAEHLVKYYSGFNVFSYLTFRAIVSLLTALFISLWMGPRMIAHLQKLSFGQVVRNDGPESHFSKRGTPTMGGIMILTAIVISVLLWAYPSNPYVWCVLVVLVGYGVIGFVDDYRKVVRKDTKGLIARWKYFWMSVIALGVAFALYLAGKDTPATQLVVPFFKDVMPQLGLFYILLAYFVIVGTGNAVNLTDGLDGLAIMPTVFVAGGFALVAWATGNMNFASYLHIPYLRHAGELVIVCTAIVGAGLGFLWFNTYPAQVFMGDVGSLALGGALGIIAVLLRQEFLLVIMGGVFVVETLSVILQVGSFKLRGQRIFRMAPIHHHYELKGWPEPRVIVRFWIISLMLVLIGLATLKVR

[3] = Inhibition of MraY in Bacillus subtilis membranes by continuous fluorescence assay; type: cell membranes
[4] = system: Escherichia coli; test: Inhibition of recombinant Escherichia coli MurG at 500 ug/ml after 30 mins by radiochemical assay in presence of [3H]-UDPGlcNAc
[5] = Inhibition of MraY in Micrococcus flavus membranes by continuous fluorescence assay; type: cell membranes
[6] = Inhibition of MraY in Pseudomonas aeruginosa membranes by continuous fluorescence assay; type: cell membranes
[7] = molecular target: T2, Phospho-N-acetylmuramoyl-pentapeptide-transferase (Escherichia coli) (UniProt E2QF15); test: Inhibition of recombinant MraY overexpressed in Escherichia coli membranes after 30 mins by radiochemical assay in presence of [14C-D-Ala]-UDPMurNAc-pentapeptide; type: cell membranes
T2 sequence (whole entry): T1 sequence (E2QF15 whole entry)

[8] = molecular target: T2, Phospho-N-acetylmuramoyl-pentapeptide-transferase (Escherichia coli); test: Inhibition of recombinant MraY overexpressed in Escherichia coli membranes at 25 ug/ml by continuous fluorescence assay; type: cell membranes
[9] = system: Escherichia coli; test: Antimicrobial activity against Escherichia coli DH5[alpha] at 1.95 to 125 ug/ml by liquid culture microtitre plate assay; type: functional, organism-based
[10] = system: Bacillus subtilis; test: Antimicrobial activity against Bacillus subtilis W23 by liquid culture microtitre plate assay; type: functional
[11] = system: Pseudomonas putida; test: Antimicrobial activity against Pseudomonas putida ATCC 33015 at 1.95 to 125 ug/ml by liquid culture microtitre plate assay; type: functional, organism-based
[12] = system: Pseudomonas aeruginosa; test: Inhibition of MraY in Pseudomonas aeruginosa membranes at 500 uM by continuous fluorescence assay; type: cell membranes
[13] = system: Micrococcus flavus; test: Inhibition of MraY in Micrococcus flavus membranes at 500 uM by continuous fluorescence assay; type: cell membranes
[14] = molecular target: T2, Phospho-N-acetylmuramoyl-pentapeptide-transferase (Escherichia coli); test: Inhibition of recombinant MraY overexpressed in Escherichia coli membranes at 500 uM after 30 mins by radiochemical assay in presence of [14C-D-Ala]-UDPMurNAc-pentapeptide; type: cell membranes
[15] = system: Micrococcus flavus; test: Antimicrobial activity against Micrococcus flavus at 1.95 to 125 ug/ml by liquid culture microtitre plate assay; type: functional, organism-based
[16] = molecular target: T2, Phospho-N-acetylmuramoyl-pentapeptide-transferase (Escherichia coli); test: Inhibition of recombinant MraY overexpressed in Escherichia coli membranes at 100 uM after 30 mins by radiochemical assay in presence of [14C-D-Ala]-UDPMurNAc-pentapeptide; type: cell membranes
[17] = system: Staphylococcus aureus; test: Inhibition of MraY in Staphylococcus aureus membranes at 500 uM by continuous fluorescence assay; type: cell membranes
[18] = system: Escherichia coli; test: Inhibition of recombinant Escherichia coli MurG at 50 ug/ml after 30 mins by radiochemical assay in presence of [3H]-UDPGlcNAc

Molecule: O=C(O)c1c(Cl)c(Cl)c(Cl)c(Cl)c1-c1c2cc(Br)c(=O)c(Br)c-2oc2c(Br)c(O)c(Br)cc12
- pIC50 [1]: 3.60
- pIC50 [2]: 4.49
- pIC50 [3]: 3.78
- inhibition [4]: inactive
- pIC50 [5]: 3.71
- pIC50 [6]: 3.89
- inhibition [7]: Active

Molecule: CC(=O)N[C@H]1[C@@H](O[C@@H]2O[C@H](CC(O)[C@H]3O[C@@H](n4ccc(=O)[nH]c4=O)[C@H](O)[C@@H]3O)[C@H](O)[C@H](O)[C@H]2NC(=O)/C=C/CC(C)C)O[C@H](CO)[C@@H](N)[C@@H]1O (stereo partly drawn)
- inhibition [8]: > 95%

Molecule: O=C(O)c1ccccc1-c1c2cc(Br)c(=O)cc-2oc2cc(O)c(Br)cc12
- inhibition [7]: inactive

Molecule: O=C(O)c1ccccc1-c1c2cc(Cl)c(=O)cc-2oc2cc(O)c(Cl)cc12
- inhibition [7]: inactive

Molecule: COc1cc(C)cc2c(-c3c(O)cc(O)c4c3C[C@@H](C)N[C@@H]4C)cc(-c3cc(-c4c(O)cc(O)c5c4C[C@@H](C)N[C@@H]5C)c4cc(C)cc(OC)c4c3O)c(O)c12 [MICHELLAMINE A]
- Activity [9]: inactive
- pIC50 [2]: 3.34
- MIC [10]: 16 µg/mL (≈ 21.1 µM)
- Activity [11]: inactive
- pIC50 [3]: 3.41
- inhibition [4]: inactive
- inhibition [12]: 38%
- inhibition [13]: 14%
- inhibition [14]: 60%
- Activity [15]: inactive
- inhibition [16]: 20%
- inhibition [17]: 0%

Molecule: RAMOPLANIN
- inhibition [18]: > 80%
